Data set [1] addresses T1, GST-LXRβ ligand-binding domain (Homo sapiens, UniProt P55055, DUP175-175).
T1 construct: amino acids 156-461; NP009052; made in house; host or cells: E. coli
T1 sequence (P55055 with tags, fused parts or gaps DUP175-175): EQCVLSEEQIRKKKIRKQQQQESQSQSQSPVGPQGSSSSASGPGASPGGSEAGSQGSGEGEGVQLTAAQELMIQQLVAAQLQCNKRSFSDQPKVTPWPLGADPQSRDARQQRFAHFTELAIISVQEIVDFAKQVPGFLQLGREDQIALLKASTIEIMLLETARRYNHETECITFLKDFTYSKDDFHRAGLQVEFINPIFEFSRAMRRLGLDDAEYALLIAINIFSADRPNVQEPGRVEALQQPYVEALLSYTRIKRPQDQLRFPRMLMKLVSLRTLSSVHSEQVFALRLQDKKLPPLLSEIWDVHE
Kind of data set: TR-FRETβ activity assay (LXRβ-LBD / NCoA3 coactivator peptide, prestimulated with 24(S)-25-epoxycholesterol). Type of data set: biochemical. Details: key to behavior in FRET assay: ag=agonist; ia=inverse agonist. Conditions: for EC50: 1 μM 24(S)-25-epoxycholesterol as prestimulating agonist, read-out: FRETβ activity range (EC50); for behavior in FRET assay: agonist or inverse agonist. The method, boiled down:
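E. coli-expressed GST-LXRβ LBD (aa 156-461) at 76 nM with biotinylated NCoA3 coactivator peptide (400 nM), in 240 mM KCl, BSA and Triton-X-100. Anti-GST-Tb cryptate/streptavidin-XL665 TR-FRET after 1 h equilibration at 4 °C, excitation 340 nm, emission 615 and 665 nm. Run in triplicate.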

Data set [2] deals with T2, LXRα ligand-binding domain (LBD) (Homo sapiens, UniProt Q13133).
T2 construct: expressed in transfected cells; host or cells: HEK293
T2 sequence (Q13133 155-447): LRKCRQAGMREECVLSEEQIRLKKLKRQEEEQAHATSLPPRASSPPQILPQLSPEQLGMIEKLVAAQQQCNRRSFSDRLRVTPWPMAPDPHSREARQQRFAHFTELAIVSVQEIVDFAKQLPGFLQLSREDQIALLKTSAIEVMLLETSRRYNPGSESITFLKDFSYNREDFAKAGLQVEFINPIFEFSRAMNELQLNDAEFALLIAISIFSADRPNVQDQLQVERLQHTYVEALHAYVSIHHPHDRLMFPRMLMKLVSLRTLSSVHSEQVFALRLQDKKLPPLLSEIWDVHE
In words: LXR Gal4 reporter transient transfection assay (M2H), Gal4α LBD. The class given is cell-based. The following applies: HEK293 cells; for EC50: read-out: M2H Gal4α LBD activity range (EC50). The method, then:
(§1) The tested compounds were usually dissolved, tested and stored as 20 mM stock solutions in DMSO. Since sulfonyl acetic acid derivatives tend to decarboxylate under these conditions, these stock solutions were prepared, tested and stored as 20 mM DMSO stock solutions containing 100 mM trifluoroacetic acid (5 equivalents). Sulfonyl acetic acid derivatives are shelf stable as solid at rt for long time as reported by Griesbrecht et al. (Synlett 2010:374) or Faucher et al. (J. Med. Chem. 2004; 47:18).
(§2) LXR Gal4 Reporter Transient Transfection Assays
(§3) LXRα and LXRβ activity status was determined via detection of interaction with coactivator and corepressor proteins in mammalian two-hybrid experiments (M2H). For this, via transient transfection the full length (FL) proteins of LXRα (amino acids 1-447; NP005684; SEQ ID NO:7) or LXRβ-(amino acids 1-461; NP009052; SEQ ID NO:8) or the ligand-binding domains (LBD) of LXRα (amino acids 155-447 SEQ ID NO:3) or LXRβ (amino acids 156-461; SEQ ID NO:4) were expressed from pCMV-AD (Stratagene) as fusions to the transcriptional activation domain of NFkB. As cofactors, domains of either the steroid receptor coactivator 1 (SRC1; amino acids 552-887; SEQ ID NO:5) or of the corepressor NCoR (amino acids 1903-2312 SEQ ID NO:6) were expressed as fusions to the DNA binding domain of the yeast transcription factor GAL4 (from pCMV-BD; Stratagene). Interaction was monitored via activation of a coexpressed Firefly Luciferase Reporter gene under control of a promoter containing repetitive GAL4 response elements (vector pFRLuc; Stratagene). Transfection efficiency was controlled via cotransfection of constitutively active pRL-CMV Renilla reniformis luciferase reporter (Promega). HEK293 cells were grown in minimum essential medium (MEM) with 2 mM L-glutamine and Earle's balanced salt solution supplemented with 8.3% fetal bovine serum, 0.1 mM non-essential amino acids, 1 mM sodium pyruvate, at 37° C. in 5% CO2. 3.5×10^4 cells/well were plated in 96-well cell culture plates in growth medium supplemented with 8.3% fetal bovine serum for 16-20 h to ˜90% confluency. For transfection, medium was taken off and LXR and cofactor expressing plasmids as well as the reporter plasmids are added in 30 μL OPTIMEM/well including polyethylene-imine (PEI) as vehicle. Typical amounts of plasmids transfected/well: pCMV-AD-LXR (5 ng), pCMV-BD-cofactor (5 ng), pFR-Luc (100 ng), pRL-CMV (0.5 ng). Compound stocks were prepared in DMSO, prediluted in MEM to a total volume of 120 μL, and added 4 h after addition of the transfection mixture (final vehicle concentration not exceeding 0.2%). Cells were incubated for additional 16 h, lysed for 10 min in 1× Passive Lysis Buffer (Promega) and Firefly and Renilla luciferase activities were measured sequentially in the same cell extract using buffers containing D-luciferine and coelenterazine, respectively. Measurements of luminescence were done in a BMG-Iuminometer.

Data set [3] has as its target T3, LXRβ ligand-binding domain (LBD) (Homo sapiens, UniProt P55055, DUP175-175).
T3 construct: LXRβ (amino acids 156-461); expressed in transfected cells; host or cells: HEK293
T3 sequence (P55055 with tags, fused parts or gaps DUP175-175): T1 sequence (P55055 with tags, fused parts or gaps DUP175-175)
Kind of data set: LXR Gal4 reporter transient transfection assay (M2H), Gal4β LBD. The class given is cell-based. Conditions: HEK293 cells; read-out: M2H Gal4β LBD activity range (EC50). The procedure: as §1, §2, §3

A short description of data set [4]: Pharmacokinetics in mice, blood and liver exposure via LC-MS. The class given is in vivo. Conditions: for oral bioavailability (in words): mice, oral administration; for blood exposure, 4 h / liver exposure, 4 h: po, Dose (mg) 20, C57BL/6J mice, 4 h after administration. The method, then: The pharmacokinetics of different sulfonamides was assessed in mice after single dosing and oral and intraperitoneal administrations. Blood and liver exposure was measured via LC-MS.
The study design was as follows:
Animals: C57BL/6J (Janvier) males
Diet: standard rodent chow
Vehicle for i.p. injection: 0.5% HPMC (w:v) in water, injection volume: <5 mL/kg
Animal handling: animals were withdrawn from food at least 12 h before administration
Design: single dose oral and bid ip administration, n=3 animals per group
Sacrifice: at t=4 h after administration
Bioanalytics: LC-MS of liver and blood samples

For data set [5] the following is noted: rat liver microsomes; cited from earlier work.
The conditions of data set [6]: human liver microsomes; cited from earlier work. A general note: Microsomes from liver hold many membrane-bound enzymes, among them those of drug oxidation.

The EC50 is the concentration needed to bring the measured effect to its halfway point.

Where two headings read alike, the source gives them in different places. Bounds are passed on as bounds.

For the molecule `Cc1cc(C)c(S(=O)(=O)N(Cc2ccc(-c3cccc(S(=O)(=O)NCC(=O)O)c3)cc2)Cc2ccc(C(F)(F)F)o2)c(C)c1` [Example 25/1], the EC50 in data set [1], in data set [2] and in data set [3] was 1 to 10 µM in each case. For the same molecule, the “behavior in FRET assay” value in data set [1] is on record as “ia”.

Take `Cc1cc(C)c(S(=O)(=O)N(Cc2ccc(-c3cccc(CCC(=O)O)c3)cc2)Cc2ccc(C(F)(F)F)o2)c(C)c1` [Example 25, 3-(4′-(((2,4,6-Trimethyl-N-((5-(trifluoromethyl)furan-2-yl)methyl)phenyl)sulfonamido)methyl)-[1,1′-biphenyl]-3-yl)propanoic acid]: the half-maximal effective concentration (EC50) in data set [1] is 0.1 to 1 µM; in data set [2] it was 0.1 to 1 µM; in data set [3], < 0.1 µM. Further, the “behavior in FRET assay” value in data set [1] is listed as “ia”.

For the molecule `Cc1cc(C)c(S(=O)(=O)N(Cc2ccc(N3CCCN(CC(=O)O)C3=O)cc2)Cc2ccc(C(F)(F)F)o2)c(C)c1` [Example 16, 2-(2-Oxo-3-(4-(((2,4,6-trimethyl-N-((5-(trifluoromethyl)furan-2-yl)methyl)phenyl)sulfon-amido)methyl)phenyl)tetrahydropyrimidin-1(2H)-yl)acetic acid], in data set [1], the EC50 was > 10 µM and the “behavior in FRET assay” value is reported as “ia”. Further, the “M2H Gal4α LBD activity range (EC50)” value in data set [2] was “inactive”. For the same molecule, in data set [3], the concentration giving a half-maximal response (EC50) was 1 to 10 µM.

On to `CCOC(=O)c1ccc(CN(Cc2ccc(-c3cccc(S(C)(=O)=O)c3)cc2)S(=O)(=O)c2c(C)cc(C)cc2C)o1` [SR9238, reference compound], for which, in data set [4], the “oral bioavailability (in words)” value is on record as “not orally bioavailable”; the “blood exposure, 4 h” value is on record as “po: below LLOQ”; the “liver exposure, 4 h” value is given as “po: below LLOQ”.

As to `Cc1cc(C)c(S(=O)(=O)N(Cc2ccc(N3CCCC(CC(=O)O)C3=O)cc2)Cc2ccc(C(F)(F)F)o2)c(C)c1` (stereo not drawn) [Example 16/1], the EC50 is > 10 µM in data set [1], 1 to 10 µM in data set [2] and 0.1 to 1 µM in data set [3]. Moreover, the “behavior in FRET assay” value in data set [1] is “ia”.

Take `CC(=O)NS(=O)(=O)c1cccc(-c2ccc(CN(Cc3ccc(C(F)(F)F)o3)S(=O)(=O)c3c(C)cc(C)cc3C)cc2)c1` [Example 3/1]: the EC50 was > 10 µM in data set [1], 0.1 to 1 µM in data set [2] and < 0.1 µM in data set [3]. Moreover, in data set [1], the “behavior in FRET assay” value is listed as “ia”.

With `Cc1cc(C)c(S(=O)(=O)N(Cc2ccc(-c3cccc(S(C)(=O)=O)c3)cc2)Cc2ccc(C(F)(F)F)o2)c(C)c1` [GSK2033, reference compound], in data set [4], the “oral bioavailability (in words)” value is listed as “not orally bioavailable”; the “blood exposure, 4 h” value is listed as “(14.4 ng/mL)”; the “liver exposure, 4 h” value was “(9.6 ng/mL)”. In data set [5], the “clearance (Clint)” value is given as > 1.0 mL/min/mg prot. Besides, in data set [6], the “clearance (Clint)” value is listed as > 1.0 mL/min/mg prot.

Consider `Cc1cc(C)c(S(=O)(=O)N(Cc2ccc(-c3ccc(OCC(=O)O)cc3)cc2)Cc2ccc(C(F)(F)F)o2)c(C)c1` [C7/11], for which the values for the concentration for a half-maximal effect (EC50) in data set [1], in data set [2] and in data set [3] were 1 to 10 µM, 0.1 to 1 µM and 0.1 to 1 µM, respectively. Moreover, in data set [1], the “behavior in FRET assay” value was “ia”.

Turning to `Cc1cc(C)c(S(=O)(=O)N(Cc2ccc(-c3cncc(C(C)(C)C(=O)O)c3)cc2)Cc2ccc(C(F)(F)F)o2)c(C)c1` [11/18], the values for the concentration for a half-maximal effect (EC50) in data set [1], in data set [2] and in data set [3] were 0.1 to 1 µM, 0.1 to 1 µM and < 0.1 µM, respectively. For the same molecule, the “behavior in FRET assay” value in data set [1] was “ia”.

As to `Cc1cc(C)c(S(=O)(=O)N(Cc2ccc(-c3cccc(CC(=O)O)c3)cc2)Cc2cccc(Br)c2)c(C)c1` [2/3], the EC50 in data set [1] lay within 1 to 10 µM; in data set [2], 0.1 to 1 µM; in data set [3], 0.1 to 1 µM. The “behavior in FRET assay” value in data set [1] was “ia”.

On to `Cc1cc(C)c(S(=O)(=O)N(Cc2ccc(-c3cccc(OCC(=O)O)c3)cc2)Cc2ccc(C(F)(F)F)o2)c(C)c1` [5/3], for which the half-maximal effective concentration (EC50) lay within 1 to 10 µM in data set [1], 0.1 to 1 µM in data set [2] and 0.1 to 1 µM in data set [3]. Moreover, the “behavior in FRET assay” value in data set [1] is given as “ia”.

`Cc1cc(C)c(S(=O)(=O)N(Cc2ccc(C(F)(F)F)o2)CC2CCC(c3cccc(C(C)(C)C(=O)O)c3)CC2)c(C)c1` (stereo not drawn) [Example 19/1]: the EC50 in data set [1] lay within 1 to 10 µM; in data set [3] it was 0.1 to 1 µM. Moreover, in data set [1], the “behavior in FRET assay” value is recorded as “ia”. The “M2H Gal4α LBD activity range (EC50)” value in data set [2] was “inactive”.

Take `COc1cc(-c2ccc3c(c2)C(C)(C)C(=O)OC3)ccc1CN(Cc1ccc(C(F)(F)F)o1)S(=O)(=O)c1c(C)ccc2ccccc12` [Example 22, N-(4-(4,4-Dimethyl-3-oxoisochroman-6-yl)-2-methoxybenzyl)-2-methyl-N-((5-(trifluoro-methyl)furan-2-yl)methyl)naphthalene-1-sulfonamide]: the concentration giving a half-maximal response (EC50) in data set [1] was 1 to 10 µM; in data set [2], 1 to 10 µM; in data set [3], < 0.1 µM. Moreover, the “behavior in FRET assay” value in data set [1] is reported as “ia”.

Take `Cc1cc(C)c(S(=O)(=O)N(Cc2ccc(C(F)(F)F)o2)CC2CC=C(c3cccc(C(C)(C)C(=O)O)c3)CC2)c(C)c1` (stereo not drawn) [Example 19, 2-Methyl-2-(4′-(((2,4,6-trimethyl-N-((5-(trifluoromethyl)furan-2-yl)methyl)phenyl)sulfon-amido)methyl)-2′,3′,4′,5′-tetrahydro-[1,1′-biphenyl]-3-yl)propanoic acid]: the EC50 is 0.1 to 1 µM in data set [1], 0.1 to 1 µM in data set [2] and < 0.1 µM in data set [3]. In data set [1], the “behavior in FRET assay” value is “ia”.

As for `Cc1cc(C)c(S(=O)(=O)N(Cc2ccc(-c3cccc(C(=O)O)c3)cc2)Cc2ccc(C(F)(F)F)o2)c(C)c1` [Example C6, 4′-(((2,4,6-Trimethyl-N-((5-(trifluoromethyl)furan-2-yl)methyl)phenyl)sulfonamido)methyl)-[1,1′-biphenyl]-3-carboxylic acid], the concentration for a half-maximal effect (EC50) in data set [1] was > 10 µM; in data set [2] it was 1 to 10 µM; in data set [3] it was 0.1 to 1 µM. Also, the “behavior in FRET assay” value in data set [1] is reported as “ia”.

The record behind these values is patent US20200115357A1, “LIVER X RECEPTORS (LXR) MODULATORS” (Phenex-FXR GmbH, priority 2017, published 2020).
